Assay results published in paper PMC9285603, “Flavan‐3‐ol Microbial Metabolites Modulate Proteolysis in Neuronal Cells Reducing Amyloid‐beta (1‐42) Levels” (Molecular Nutrition & Food Research, 2021).
Like-named read-outs stand apart in the source and are kept apart here.

Columns and labels:
[1] = test system: human neuroblastoma SH‐SY5Y cells; design: method as in PMID 28891114; details: cited from earlier work
[2] = design: method as in PMID 28891114; details: compared with parental compound EGCG; cited from earlier work
brown adipocytes = test system: brown adipocytes; design: method as in PMID 28276197; details: cited from earlier work
26S proteasome = biological target: T1, 26S proteasome (Homo sapiens, UniProt P28074); test: 26S proteasome ChT‐L activity in cell lysates (fluorimetric); type: cell-based; details: cellular lysates, 24‐h exposure; versus untreated cells
T1 construct: ChT‐L activity of the 26S proteasome measured in control and transfected SH‐SY5Y cells; endogenous in cells; host or cells: SH-SY5Y (control, APPwt- and APPmut-transfected)
T1 sequence (P28074 60-263): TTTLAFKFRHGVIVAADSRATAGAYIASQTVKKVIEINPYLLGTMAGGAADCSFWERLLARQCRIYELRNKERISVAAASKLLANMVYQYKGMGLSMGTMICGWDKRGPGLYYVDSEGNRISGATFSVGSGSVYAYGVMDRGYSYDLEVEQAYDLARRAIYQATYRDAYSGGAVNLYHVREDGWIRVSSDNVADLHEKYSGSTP
Method: (§1) Cell viability was evaluated with the 3‐(4,5‐dimethylthiazol‐2‐yl)‐2,5‐diphenyltetrazolium bromide assay (MTT).^[ [25] ^] Upon 6 h and 24 h treatment with increasing concentrations (0‐10 µM) of C1, C2, and C3 dissolved in DMSO, cells were washed in PBS, pH 7.5, and then MTT (final concentration 0.5 mg mL^−1) was added to the culture medium without FBS and incubated for 2 h at 37 °C. The medium was then removed and replaced with 100 µL of DMSO. The optical density was measured at 550 nm in a microtiter plate reader. At least six cultures were utilized for each time point. […] Protein concentration was determined by the method of Bradford using bovine serum albumin (BSA) as standard.^[ [26] ^]
(§2) The effects on the proteasome system were evaluated through fluorimetric assays, as previously reported,^[ [27] ^] using the following synthetic substrates: Leu‐Leu‐Val‐Tyr‐AMC for ChT‐L, Leu‐Ser‐Thr‐Arg‐AMC for T‐L, Leu‐Leu‐Glu‐AMC for PGPH, and Gly‐Pro‐Ala‐Leu‐Ala‐AMC for BrAAP, whose test is performed with the addition of the aminopeptidase‐N (AP‐N). […] Incubation was performed at 37 °C, and after 60 min, the fluorescence of the hydrolyzed 7‐amino‐4‐methyl‐coumarin (AMC) was recorded (AMC, λexc = 365 nm, λem = 449 nm) on a SpectraMax Gemini XPS microplate reader. […] The fluorescence values of lysates were subtracted of the values of control assays in the presence of the two inhibitors.

20S immunoproteasome = biological target: T2, 20S immunoproteasome (Bos taurus, UniProt Q3SZC2+Q3T0T1+Q3T112); test: In vitro activity assays on isolated immunoproteasome (fluorogenic peptides); type: biochemical; details: isolated 20S from bovine thymus
T2 construct: isolated constitutive and immunoproteasomes purified from bovine brain and thymus, respectively; from tissue; host or cells: bovine thymus
Method: (§3) PVLs effects on the 20S constitutive and immunoproteasome peptidase activities were measured through in vitro assays performed with fluorogenic peptides as substrates. Isolation and purification of the 20S proteasome from bovine brain and thymus were performed as previously reported.^[ [23] ^] The incubation mixture contained the compound at concentrations ranging from 0.0 to 10 µM, 1 µg of the isolated 20S proteasome, the appropriate substrate (5 µM final concentration), and 50 mm Tris/HCl (pH 8.0), up to a final volume of 100 µL. Purified proteasomes were always preincubated with each compound at 37°C for 30 min before the fluorogenic peptide substrates were added to the reaction mixture. Final incubation was performed at 37°C, and after 60 min the fluorescence of the hydrolyzed 7‐amino‐4‐methyl‐coumarin (AMC) and 4‐aminobenzoic acid (pAB) was detected (AMC, λexc = 365 nm, λem = 449 nm; pAB, λexc = 304 nm, λem = 664 nm) on a SpectraMax Gemini XPS microplate reader.
(§4) PVLs were first tested on isolated constitutive and immunoproteasomes purified from bovine brain and thymus, respectively. The constitutive 20S proteasome is a barrel‐shaped complex of four stacked rings, made of seven α subunits in the two outer rings and seven β subunits in the two inner rings, the latter bearing the catalytically active sites in the β1, β2, and β5 subunits. Treatment with inflammatory cytokines induces the transcription of three additional active subunits, known as β1i, β2i, and β5i, that replace constitutive homologues during proteasome assembly.^[ [28] ^] Proteasome proteolytic activities depend on the hydroxyl group of the N‐terminal threonine (Thr‐1) residue, responsible for cleaving peptides through a nucleophilic attack.^[ [29] ^]

Aβ(1‐42) = test: Quantification of Aβ(1‐42) by ELISA in medium and cellular extracts; type: cell-based, human; details: 24 h, 5 µM; for Aβ(1‐42) levels: APPwt cells
Method: Levels of Aβ(1‐42) secreted into the medium and present in cellular extracts were determined after PVLs treatment using the Human Aβ42 solid‐phase sandwich ELISA Kit from Invitrogen, following the manufacturer's instructions. For Aβ quantification in cell medium, culture medium was collected after neuronal cells treatment, centrifuged at 300 × g for 10 min to remove non adherent cells and debris and then treated with protease inhibitors.

[3] = test system: ubiquitin‐protein conjugates and p27; test: Western blot of proteasome substrates (ubiquitin‐protein conjugates, p27); type: cell-based, human
Method: (§5) Cell viability was evaluated with the 3‐(4,5‐dimethylthiazol‐2‐yl)‐2,5‐diphenyltetrazolium bromide assay (MTT).^[ [25] ^] Upon 6 h and 24 h treatment with increasing concentrations (0‐10 µM) of C1, C2, and C3 dissolved in DMSO, cells were washed in PBS, pH 7.5, and then MTT (final concentration 0.5 mg mL^−1) was added to the culture medium without FBS and incubated for 2 h at 37 °C. The medium was then removed and replaced with 100 µL of DMSO. The optical density was measured at 550 nm in a microtiter plate reader. At least six cultures were utilized for each time point. Neuroblastoma cells, control and transfected cells, were then treated with C1, C2, and C3 for 6 and 24 h at the concentrations 0–1–5 µM. Compounds were dissolved in DMSO and then added to cell culture media. Control cells were included in each time point. After removing the medium and washing with cold phosphate buffered saline (PBS), cells were harvested in 4 mL of PBS and centrifuged at 1600 × g for 5 min. The pellet was resuspended in lysis buffer (20 mM Tris, pH 7.4, 250 mM sucrose, 1 mM EDTA, and 5 mM β‐mercaptoethanol) and passed through a 29‐gauge needle at least ten times. Lysates were centrifuged at 12 000×g for 15 min and the supernatants were stored at ‐80°C until use. Protein concentration was determined by the method of Bradford using bovine serum albumin (BSA) as standard.^[ [26] ^]
(§6) Proteins were resolved on SDS–PAGE and electroblotted onto PVDF membranes. Membranes with transferred proteins were incubated with the primary monoclonal antibody and successively with the specific peroxidase conjugated secondary antibody. Monoclonal antibodies against Ub and p27 were obtained from Santa Cruz Biotechnology, Inc. (Heidelberg, Germany). SQSTM1/p62 (sequestosome 1, herein p62) mouse monoclonal antibody was from Sigma‐Aldrich S.r.L. (Milano, Italy) and the anti‐LC3B antibody was purchased from Cell Signaling Technology, Inc. The immunoblot detection was performed with ECL Western blotting detection reagents using a ChemiDoc MP system. Each gel was loaded with molecular weight markers in the range of 12 to 225 kDa (GE Healthcare). Glyceraldehyde‐3‐phosphate dehydrogenase (GAPDH) was utilized as a control for equal protein loading: membranes were stripped and re‐probed with anti‐GAPDH monoclonal antibody (Santa Cruz Biotechnology, Heidelberg, Germany). Stripping buffer contained 200 mM glycine, 0.1% SDS, and 1% Tween 20. Immunoblot images were quantified using ImageJ 1.52p software (NIH, USA).

[4] = biological target: T3, constitutive 20S proteasome (Bos taurus, UniProt Q2TBP0+Q32KL2+Q3MHN0); test: In vitro activity assays on isolated constitutive 20S proteasome (fluorogenic peptides); type: biochemical; details: isolated 20S from bovine brain
T3 construct: isolated constitutive and immunoproteasomes purified from bovine brain and thymus, respectively; from tissue; host or cells: bovine brain
Method: as §3, §4

Cathepsin B = biological target: T4, Cathepsin B (Homo sapiens, UniProt P07858); test: Cathepsin B activity in cell lysates (Z‐Arg‐Arg‐AMC); type: cell-based; details: APPmut cells, 6 h treatment
T4 construct: The mixture for cathepsin B, containing 1 µg of cell lysate; endogenous in cells; host or cells: SH-SY5Y (control, APPwt- and APPmut-transfected)
Method: as §5
Cathepsin B proteolytic activity was measured using the fluorogenic peptide Z‐Arg‐Arg‐AMC at a final concentration of 50 µM, as previously described.^[ [24] ^] The mixture for cathepsin B, containing 1 µg of cell lysate, was pre‐incubated in 100 mM phosphate buffer pH 6.0, 1 mM EDTA, and 2 mM dithiothreitol for 5 min at 30°C. Upon the addition of the substrate, the mixture was incubated for 15 min at 30°C. The fluorescent signal released by the hydrolyzed 7‐amino‐4‐methyl‐coumarin (AMC, λexc = 365 nm, λem = 449 nm) was detected on a SpectraMax Gemini XPS microplate reader.

LC3II and p62 = test: Western blot of autophagy markers (LC3II, p62); type: cell-based, human; details: for levels of LC3II: 6 h
Method: as §5
as §6, with “Each gel was loaded with molecular weight markers in the range of 12 to 225 kDa (GE Healthcare). Glyceraldehyde‐3‐phosphate dehydrogenase (GAPDH) was utilized as a control for equal protein loading: membranes were stripped and re‐probed with anti‐GAPDH monoclonal antibody (Santa Cruz Biotechnology, Heidelberg, Germany). Stripping buffer contained 200 mM glycine, 0.1% SDS, and 1% Tween 20.” left out

[5] = test system: SH‐SY5Y control and transfected cells; test: MTT cell viability assay; type: cell-based, human; details: 24 h exposure, 10 µM, data not shown
Method: as §5

20S proteasome = biological target: T5, 20S proteasome (Homo sapiens, UniProt P28072+P28074+Q99436); test: 20S proteasome activity in cell lysates (fluorimetric); type: cell-based; details: cellular lysates, 1 and 5 µM, 6 and 24 h
T5 construct: The incubation mixture contained 1 µg of cell lysate, the appropriate substrate; endogenous in cells; host or cells: SH-SY5Y (control, APPwt- and APPmut-transfected); only APP is transfected, the proteasome is endogenous
T5 sequence (P28074 60-263): T1 sequence (P28074 60-263)
T5 sequence (Q99436 44-277): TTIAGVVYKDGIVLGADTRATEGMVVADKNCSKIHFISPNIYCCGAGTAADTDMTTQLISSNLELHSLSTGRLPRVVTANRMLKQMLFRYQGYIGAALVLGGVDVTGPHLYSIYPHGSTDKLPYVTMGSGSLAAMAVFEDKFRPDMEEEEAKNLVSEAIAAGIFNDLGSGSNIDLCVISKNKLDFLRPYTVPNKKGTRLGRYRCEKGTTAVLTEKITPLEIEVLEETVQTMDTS
T5 sequence (P28072 1-239): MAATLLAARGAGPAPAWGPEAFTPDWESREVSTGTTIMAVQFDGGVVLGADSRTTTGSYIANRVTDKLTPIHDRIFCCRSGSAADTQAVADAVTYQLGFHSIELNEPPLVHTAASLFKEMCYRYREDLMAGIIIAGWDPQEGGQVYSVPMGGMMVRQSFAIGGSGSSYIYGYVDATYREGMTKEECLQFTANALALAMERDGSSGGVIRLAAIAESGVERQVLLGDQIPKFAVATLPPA
Method: as §1, §2

[6] = 30 min preincubation, 37°C, read-out: IC50 ChT‐L Immunoproteasome
[7] = read-out: IC50 BrAAP Immunoproteasome
[8] = read-out: IC50 PGPH Immunoproteasome
[9] = read-out: IC50 T‐L Immunoproteasome
[10] = 6 h exposure, control and transfected SH‐SY5Y cells
[11] = 24 h treatment, mainly in APPmut cells exposed to C1
[12] = 30 min preincubation, 37°C, read-out: IC50 ChT‐L Constitutive proteasome
[13] = read-out: IC50 BrAAP Constitutive proteasome
[14] = read-out: IC50 PGPH Constitutive proteasome
[15] = read-out: IC50 T‐L Constitutive proteasome

SMILES	ChT‐L residual activity, 26S proteasome (26S proteasome) [%]	IC50 (20S immunoproteasome; [6]) [nM]	IC50 (20S immunoproteasome; [7]) [nM]	IC50 (20S immunoproteasome; [8]) [nM]	IC50 (20S immunoproteasome; [9]) [nM]	Aβ(1‐42) levels (Aβ(1‐42))	levels of Ub‐conjugates and p27 [3, 10]	levels of Ub‐conjugates and p27 [3, 11]	IC50 [4, 12] [nM]	IC50 [4, 13] [nM]	IC50 [4, 14] [nM]	IC50 [4, 15] [nM]	inhibition at 5 µM (Cathepsin B) [%]	further results
O=C1CCC(Cc2cc(O)cc(O)c2)O1 (centres unmarked) [5‐(3ʹ,5ʹ‐dihydroxyphenyl)‐γ‐valerolactone]	–	–	–	–	–	–	–	–	–	–	–	–	–	neurites outgrowth and elongation [1]: significantly induced; BBB permeability [2]: slightly higher
O=C1CC[C@H](Cc2ccc(O)c(O)c2)O1 [(R)‐5‐(3ʹ,4ʹ‐dihydroxyphenyl)‐γ‐valerolactone]	–	–	–	–	–	–	–	–	–	–	–	–	–	protection from increased production of reactive oxygen species (brown adipocytes): protect brown adipocytes
O=C1CCC(Cc2ccc(O)cc2)O1 (centres unmarked) [Compound C1, 5‐(4ʹ‐hydroxyphenyl)‐γ‐valerolactone]	30	126 ± 11.3	218 ± 19.6	41.8 ± 3.8	227 ± 13.2	significantly reduced	no particular effect	evident increase	120 ± 12.1	243 ± 20.1	62.8 ± 58.7	13 ± 2.1	20	levels of LC3II (LC3II and p62; APPmut cells): increased
O=C1CCC(Cc2ccc(O)c(O)c2)O1 (centres unmarked) [Compound C2, 5‐(3ʹ,4ʹ‐dihydroxyphenyl)‐γ‐valerolactone]	–	238 ± 16.7	61.3 ± 5.7	114 ± 19.7	334 ± 28.9	did not induce any change	no particular effect	evident increase	16.2 ± 1.2	256 ± 14.4	85.8 ± 7.8	87.4 ± 7.9	20	number of APPmut viable cells (MTT) [5]: minor reduction; proteasome inhibition, comparison among the three tested compounds (20S proteasome): the least efficient; levels of LC3II (LC3II and p62; APPwt cells): increased
O=C1CCC(Cc2ccc(OS(=O)(=O)O)c(O)c2)O1 (centres unmarked) [Compound C3, 5‐(3ʹ‐hydroxyphenyl)‐γ‐valerolactone‐4ʹ‐sulfate]	60	1450 ± 153	88.4 ± 7	72.7 ± 5.7	588 ± 47.6	–	no particular effect	evident increase	109 ± 11	302 ± 27.8	104 ± 11	56.8 ± 2.3	30	reduction of Aβ(1‐42) in cell extracts (Aβ(1‐42); APPmut cells): 35%; reduction of Aβ(1‐42) in cell medium (Aβ(1‐42); APPmut cells): 35%; p62 degradation (LC3II and p62; APPwt cells, long‐term (24 h) exposure): favored p62 degradation
